Experimental findings from patent US20260042769A1, “TRIARYL AGONISTS OF ALPHA-2 ADRENERGIC RECEPTORS” (ALCEPTOR THERAPEUTICS, INC., priority 2023, published 2026) are described below.

The target in this assay is T1, human ADRA2B receptor (Homo sapiens, UniProt P18089).
T1 construct: expressed in transfected cells
T1 sequence (P18089 1-450): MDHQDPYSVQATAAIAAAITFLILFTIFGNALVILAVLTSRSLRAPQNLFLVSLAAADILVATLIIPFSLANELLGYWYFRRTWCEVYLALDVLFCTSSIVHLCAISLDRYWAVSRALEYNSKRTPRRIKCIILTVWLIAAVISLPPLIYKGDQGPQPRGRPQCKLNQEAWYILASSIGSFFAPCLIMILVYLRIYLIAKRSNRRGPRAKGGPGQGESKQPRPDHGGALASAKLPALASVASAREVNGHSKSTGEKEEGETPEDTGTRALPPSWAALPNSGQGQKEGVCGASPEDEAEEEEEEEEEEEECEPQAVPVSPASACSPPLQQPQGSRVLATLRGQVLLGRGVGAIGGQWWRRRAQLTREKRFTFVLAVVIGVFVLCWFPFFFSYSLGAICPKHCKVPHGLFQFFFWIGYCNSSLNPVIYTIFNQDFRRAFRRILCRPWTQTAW
The assay is described as follows: GTPγS agonist assay, ADRA2B receptor. In kind it is biochemical. To be noted: read-out: GTPase - Human Alpha2B EC50. Here is the method:
GTP ? S Agonist Assays (ADRA2A, ADRA2B, and ADRA2C Receptors)
Membranes were prepared for GTP ? S binding assays from CHO-K1 cells stably expressing human ADRA2A, ADRA2B, or ADRA2C receptor. Briefly, cells were grown in 5-layer cell culture flasks. Cells were washed with 50 mL of PBS and then dissociated with 0.05% trypsin. Dissociated cells were then collected by centrifugation at 650×g for 8 min at 4° C. Pellets were washed again in PBS by centrifugation and resuspended in 30 mL of 20 mM HEPES, 10 mM EDTA, pH 7.4. After sitting on ice for 30 min, membranes were collected by centrifugation at 50000×g for 15 min at 4° C., resuspended in 30 mL of 20 mM HEPES, 0.1 mM EDTA, pH 7.4 and collected again by centrifugation. Pellets were then washed twice by centrifugation in 30 mL of 20 mM HEPES, pH 7.4, and stored at −80° C. until the day of the assay. On the day of the assay, pellets were thawed on ice and resuspended in 1 mL of 20 mM HEPES, pH 7.4, 10 mM MgCl2, 100 mM NaCl using dounce homogenization. Membrane protein concentration was determined by BCA protein assay (Promega, Madison, WI) according to Promega guidelines.
On the day of the assay, serial dilutions of test compounds were brought up in assay buffer (20 mM HEPES, 10 mM MgCl2, 200 mM NaCl) at 10× final assay concentration. 50 μL/well of membrane homogenates (containing 5 μg of membrane protein for ADRA2A, ADRA2B, or 7.5 μg for ADRA2C) were prepared in assay buffer supplemented with GDP at 2× final assay concentration (5 μM GDP) and dispensed into 96 well polypropylene, U-bottom Greiner plates. Then, 10 μL of compounds were added to assay plates and incubated for 10 min at room temperature. […] The binding reaction was incubated for 1 h at 37° C. Membranes in assay reactions were then transferred to GF/C filter plates (UniFilter, Perkin Elmer) and washed three times using a FilterMate Harvester (Perkin Elmer) with cold assay buffer containing no GDP. Filter plates were then dried at 40° C. overnight followed by the addition of 30 μL/well of Beta Plate Scintillation liquid. Plates were top and bottom sealed before being read on TopCount scintillation counter (Perkin Elmer, Waltham, MA).

Consider `COc1cccc(C[C@H](c2c[nH]cn2)c2cccc(C)c2F)n1` (single isomer, unassigned) [Compound 5], for which the EC50 was less than 10 nM. As for `COc1cccc(C[C@@H](c2c[nH]cn2)c2cccc(C)c2F)n1` (single isomer, unassigned) [Compound 6], the EC50 was in the range of 50 to 500 nM.

As for `c1cnnc(C[C@@H](c2c[nH]cn2)c2cccc3c2OCC3)c1` (single isomer, unassigned) [Compound 362], the EC50 fell in the range of 10 to 50 nM. Then `COc1cccc(C[C@H](c2c[nH]cn2)c2cccc(C)c2C)n1` [Compound 3, 2-[(2S)-2-(2,3-dimethylphenyl)-2-(1H-imidazol-4-yl)ethyl]-6-methoxypyridine], with less than 10 nM. Then `COc1cccc(C[C@@H](c2c[nH]cn2)c2cccc(C)c2C)n1` [Compound 4, 2-[(2R)-2-(2,3-dimethylphenyl)-2-(1H-imidazol-4-yl)ethyl]-6-methoxypyridine], with 50 to 500 nM. The value for `COc1cccc(C[C@H](c2c[nH]cn2)c2cccc(Cl)c2OC)n1` [Compound 7, 2-[(2S)-2-(3-chloro-2-methoxyphenyl)-2-(1H-imidazol-4-yl)ethyl]-6-methoxypyridine] was 10 to 50 nM. Turning to `COc1cccc(C[C@@H](c2c[nH]cn2)c2cccc(Cl)c2OC)n1` [Compound 8, 2-[(2R)-2-(3-chloro-2-methoxyphenyl)-2-(1H-imidazol-4-yl)ethyl]-6-methoxypyridine], the EC50 was more than 500 nM. Regarding `COc1cccc(C[C@H](c2cnc[nH]2)c2cccc(C)c2OC)n1` [Compound 9, 2-[(2S)-2-(1H-imidazol-4-yl)-2-(2-methoxy-3-methylphenyl)ethyl]-6-methoxypyridine], the EC50 is less than 10 nM.

`COc1cccc(C[C@@H](c2cnc[nH]2)c2cccc(C)c2OC)n1` [Compound 10, 2-[(2R)-2-(1H-imidazol-4-yl)-2-(2-methoxy-3-methylphenyl)ethyl]-6-methoxypyridine]: the EC50 was more than 500 nM. For `COc1cccc(C[C@H](c2cnc[nH]2)c2cccc3c2COC3)n1` [Compound 11, 2-[(2S)-2-(1,3-dihydro-2-benzofuran-4-yl)-2-(1H-imidazol-4-yl)ethyl]-6-methoxypyridine], the EC50 was less than 10 nM. Then `COc1cccc(C[C@@H](c2cnc[nH]2)c2cccc3c2COC3)n1` [Compound 12, 2-[(2R)-2-(1,3-dihydro-2-benzofuran-4-yl)-2-(1H-imidazol-4-yl)ethyl]-6-methoxypyridine], with more than 500 nM; and `COc1cccc(CC(c2c[nH]cn2)c2ccnc(C)c2C)n1` (centres unmarked) [Compound 13, 4-[1-(1H-imidazol-4-yl)-2-(6-methoxypyridin-2-yl)ethyl]-2,3-dimethylpyridine], with more than 500 nM.

`COc1cccc(C[C@H](c2c[nH]cn2)c2cccc(Cl)c2C)n1` [Compound 14, 2-[(2S)-2-(3-chloro-2-methylphenyl)-2-(1H-imidazol-4-yl)ethyl]-6-methoxypyridine]: the EC50 lay within 50 to 500 nM. Then `COc1cccc(C[C@@H](c2cnc[nH]2)c2cccc(Cl)c2C)n1` [Compound 15, 2-[(2R)-2-(3-chloro-2-methylphenyl)-2-(1H-imidazol-4-yl)ethyl]-6-methoxypyridine], with less than 10 nM; and `COc1cccc(C[C@H](c2c[nH]cn2)c2cccc3c2OCC3)n1` [Compound 16, 2-[(2S)-2-(2,3-dihydro-1-benzofuran-7-yl)-2-(1H-imidazol-4-yl)ethyl]-6-methoxypyridine], with less than 10 nM; and `COc1cccc(C[C@@H](c2cnc[nH]2)c2cccc3c2OCC3)n1` [Compound 17, 2-[(2R)-2-(2,3-dihydro-1-benzofuran-7-yl)-2-(1H-imidazol-4-yl)ethyl]-6-methoxypyridine], with 50 to 500 nM. Then `COc1cccc(C[C@H](c2c[nH]cn2)c2cccc3c2CCO3)n1` [Compound 18, 2-[(2S)-2-(2,3-dihydro-1-benzofuran-4-yl)-2-(1H-imidazol-4-yl)ethyl]-6-methoxypyridine], with more than 500 nM.

As a reminder, the EC50 is the concentration at which the effect is half-maximal.
